# Assay results from the supplement of paper PMC4858399.
# Tests used:
# Conditions in all cases: exposure time 48 h
# [1] = test system: Caenorhabditis elegans N2; experiment: mean nematode size ln(EXT) after 48 h, plate-adjusted (DMSO control set to 6) (ln(EXT), control-adjusted); higher = larger nematodes / less growth inhibition
# Summary of the method: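 In K-medium with killed OP50, 1% DMSO and 0.5–200 µM chemical, synchronised N2 L1 larvae of C. elegans (50 per well) grew for 48 h at 20°C. Extinction was read for every worm on the Biosort, with debris removed by a growth model. Natural-log values averaged per well gave mean size, which was corrected per plate by subtracting the vehicle control mean and adding 6.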
# [2] = test system: Caenorhabditis elegans N2; experiment: lowest effective concentration for larval growth inhibition (size below effect threshold); higher = less potent
# Summary of the method: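 Chemical exposure ran for 48 h at 20°C: 50 C. elegans N2 L1 larvae per 96-well in K-medium with killed bacteria, 1% DMSO and 0.5, 1, 5, 10, 50, 100 or 200 µM chemical. Extinction of each worm, read as size on the Biosort, was log-transformed and averaged by well. The lowest effective concentration is the first dose whose plate-adjusted mean size is below a fixed value and remains so at all higher doses; the value is 5.665.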
# [3] = test system: Caenorhabditis elegans N2; experiment: AC50 for larval growth inhibition (Hill fit); higher = less potent
# Summary of the method: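 AC50 values come from a constrained Hill fit by weighted genetic-algorithm regression and are censored when out of range. The fit used only wells with at least 10 worms. Each well of a 96-well plate held 50 synchronised C. elegans N2 L1 larvae in K-medium with killed OP50, 1% DMSO and 0.5–200 µM chemical for 48 h at 20°C. A COPAS Biosort recorded each worm's size as extinction, which was log-transformed and averaged per well.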
Structure (SMILES),mean nematode size ln(EXT) (ln) ([1]; 0.5 µM),mean nematode size ln(EXT) (ln) ([1]; 1 µM),mean nematode size ln(EXT) (ln) ([1]; 5 µM),mean nematode size ln(EXT) (ln) ([1]; 10 µM),mean nematode size ln(EXT) (ln) ([1]; 50 µM),mean nematode size ln(EXT) (ln) ([1]; 100 µM),mean nematode size ln(EXT) (ln) ([1]; 200 µM),lowest effective concentration [2] [µM],AC50 for larval growth inhibition [3] [µM]
COP(=O)(OC)OC=C(Cl)Cl [Dichlorvos],6.07,6.12,5.84,5.87,5.05,4.4,3.3,50,80.4
O=C1c2ccccc2C(=O)N1SC(Cl)(Cl)Cl [Folpet],5.89,5.98,5.57,5.84,5.53,5.55,5.09,50,> 200
CS(=O)(=O)NC(=O)c1cc(Oc2ccc(C(F)(F)F)cc2Cl)ccc1[N+](=O)[O-] [Fomesafen],5.93,5.95,5.95,5.95,5.89,6,5.52,200,180
c1ccc(/N=N/c2ccccc2)cc1 [Azobenzene],5.73,5.67,5.67,5.61,5.21,4.48,3.5,10,91.6
O=S(=O)(O)C(F)(F)C(F)(F)C(F)(F)C(F)(F)C(F)(F)C(F)(F)F [Potassium perfluorohexanesulfonate],5.85,5.87,5.87,5.85,5.76,5.55,5.31,100,> 200
Oc1ccc2ccc3cccc4ccc1c2c34 [1-Hydroxypyrene],6,5.88,5.84,5.75,3.72,3.8,3.87,50,16
CCOc1ccc(C(C)(C)COCc2cccc(Oc3ccccc3)c2)cc1 [Etofenprox],5.87,5.88,5.91,5.71,5.81,5.39,5.47,100,52.2
"O=c1[nH]sc2ccccc12 [1,2-Benzisothiazolin-3-one]",5.72,5.71,5.73,5.74,5.69,5.5,5.48,100,> 200
CCCCOC(=O)CCCCCCCCC(=O)OCCCC [Dibutyl sebacate],5.85,5.87,5.86,5.68,5.05,5.15,4.79,50,27
C=C(C)[C@H]1Cc2c(ccc3c2O[C@@H]2COc4cc(OC)c(OC)cc4[C@@H]2C3=O)O1 [Rotenone],5.16,6.51,6.12,6.26,6.39,6.45,4.07,200,181
CCOP(=S)(OCC)OC(Cl)C(Cl)(Cl)Cl (centres undefined) [Chlorethoxyfos],5.75,5.76,5.76,5.7,4.54,5.09,3.42,50,13.2
"CCC(C)(C)c1ccc(O)c(C(C)(C)CC)c1 [Phenol, 2,4-bis(1,1-dimethylpropyl)-]",5.8,5.87,5.76,5.65,5.4,4.93,4.37,10,175
CCCCCCCCCCCCOS(=O)(=O)[O-].[Na+] [Sodium dodecyl sulfate],5.87,5.81,5.75,5.47,4.99,4.66,4.69,10,24.5
O=C(O)c1ccc([N+](=O)[O-])cc1 [4-Nitrobenzoic acid],6,5.57,5.86,5.85,5.77,5.91,5.53,200,> 200
O=C(CCl)c1ccccc1 [2-Chloroacetophenone],5.82,5.84,5.82,5.48,5.82,5.8,4.95,200,> 200
CC(C)(C)C(=O)C(Oc1ccc(Cl)cc1)n1cncn1 (centres undefined) [Triadimefon],5.76,5.75,5.57,5.71,5.98,5.91,5.36,200,> 200
OC[C@@H](O)[C@@H](O)[C@H](O)[C@H](O)CO [D-Mannitol],5.94,5.89,5.93,5.96,5.93,5.94,5.42,200,> 200
c1ccc2c(c1)oc1ccccc12 [Dibenzofuran],5.88,5.9,5.93,5.87,5.61,5.1,3.65,50,126
Cn1sc(Cl)cc1=O [5-Chloro-2-methyl-3(2H)-isothiazolone],5.96,5.93,5.95,6,5.9,5.82,5.55,200,> 200
NC(=O)c1nc(-c2cccc(-c3cc(F)ccc3OCC(F)(F)C(F)(F)F)c2)n[nH]1,5.73,5.81,5.71,5.78,5.53,4.97,5.09,50,50.6
CNS(=O)(=O)c1cc(C(=O)N2CCC(CCN3C4CCC3CC(n3c(C)nc5ccccc53)C4)(c3cccc(F)c3)CC2)c(Cl)cc1F (centres undefined),5.68,5.79,5.77,5.78,5.62,5.38,5.41,50,> 200
CO/C=C(/C(=O)OC)c1ccccc1COc1cccc(C(F)(F)F)n1 [Picoxystrobin],5.95,5.83,5.92,5.89,4.97,4.26,4.61,50,48.6
O=C(c1ccccc1)c1ccccc1 [Benzophenone],5.86,6.01,5.94,5.89,5.79,5.66,4.65,100,> 200

Structure (SMILES),mean nematode size ln(EXT) (ln) ([1]; 0.5 µM),mean nematode size ln(EXT) (ln) ([1]; 1 µM),mean nematode size ln(EXT) (ln) ([1]; 5 µM),mean nematode size ln(EXT) (ln) ([1]; 10 µM),mean nematode size ln(EXT) (ln) ([1]; 50 µM),mean nematode size ln(EXT) (ln) ([1]; 100 µM),mean nematode size ln(EXT) (ln) ([1]; 200 µM),lowest effective concentration [2] [µM],AC50 for larval growth inhibition [3] [µM]
O=C(N[C@@H](c1ccccc1)[C@@H]1CCCCN1)c1cccc(C(F)(F)F)c1Cl,5.86,5.78,5.75,5.66,5.2,4.58,4.47,10,148
CN[C@H]1CC[C@@H](c2ccc(Cl)c(Cl)c2)c2ccc(S(N)(=O)=O)cc21,5.87,5.84,5.88,5.84,5.4,4.42,3.62,50,90.3
CCOc1cccc(C2(N3CCN(c4ccccc4)CC3)CCC(C)CC2)c1 (centres undefined),5.73,5.87,5.72,5.79,5.69,5.67,5.56,200,> 200
CNC(=O)Oc1cccc2c1OC(C)(C)O2 [Bendiocarb],5.79,5.85,5.8,5.79,5.81,5.76,5.25,200,> 200
"Clc1cccc(Cl)c1Cl [1,2,3-Trichlorobenzene]",6.08,6.04,6.06,6.07,6.02,5.98,3.55,200,122
"CC(c1ccc(O)cc1)(c1ccc(O)cc1)c1ccc(O)cc1 [4,4’,4""-Ethane-1,1,1-triyltriphenol]",5.76,6.01,5.91,5.91,5.87,5.39,5.19,100,79.3
CNC(=O)N(C)c1nnc(C(C)(C)C)s1 [Tebuthiuron],5.83,5.93,5.89,5.93,5.95,5.92,5.44,200,129
CC[C@@H]1C[C@H](N(Cc2cc(C(F)(F)F)cc(C(F)(F)F)c2)C(C)=O)c2cc(C(F)(F)F)ccc2N1C(=O)OC(C)C,5.74,6.01,5.87,5.9,5.83,5.79,5.52,200,> 200
CCOP(=S)(OCC)SCn1c(=O)oc2cc(Cl)ccc21 [Phosalone],5.76,5.7,5.97,4.73,4.26,4.06,3.72,10,9.77
COC(=O)c1c(C(F)F)nc(C(F)(F)F)c(C2=NCCS2)c1CC(C)C [Thiazopyr],6.05,5.89,6,5.98,4.8,4.4,3.61,50,73.2
CCCCC=O [Pentanal],5.98,5.93,5.9,6,6.05,6.02,5.56,200,185
c1ccc2ccccc2c1 [Naphthalene],5.99,5.93,5.96,5.78,5.87,5.92,4.83,200,> 200
Cc1cc(CCN2CCN(c3nsc4ccccc34)CC2)cc2c1NC(=O)CC2(C)C,5.77,5.72,5.61,5.4,4.49,4.01,3.55,5,41.3
C=C(C)CN(CC)c1c([N+](=O)[O-])cc(C(F)(F)F)cc1[N+](=O)[O-] [Ethalfluralin],5.89,6.05,5.94,5.8,6.1,5.98,4.85,200,141
CCC[CH2][Sn]([Cl])([CH2]CCC)[CH2]CCC [Tributyltin chloride],4.58,4.74,3.7,3.56,3.85,3.97,3.48,≤ 0.5,< 0.5
O=C(O)[C@@H]1[C@H](C(=O)O)[C@H]2CC[C@@H]1O2 [Endothal],5.86,5.85,5.91,5.82,5.56,5.71,5.15,200,> 200
O=C(N[C@H]1CN2CCC1CC2)c1cc2ccoc2cn1,5.73,5.89,5.88,5.78,5.86,5.86,5.65,200,> 200
Nc1ccc(Cl)cc1 [p-Chloroaniline],5.79,5.76,5.74,5.76,5.28,4.43,4.21,50,58.2
CCCCCC/C(C=O)=C\c1ccccc1 [2-Benzylideneoctanal],5.84,5.85,5.79,5.69,5.13,5.22,5.01,50,28.8
ClC1=C(Cl)C2(Cl)C3C4C=CC(C4)C3C1(Cl)C2(Cl)Cl (centres undefined) [Aldrin],5.97,5.64,4.59,3.88,3.6,3.76,3.25,1,3.92
Clc1cc(Cl)c2c(c1)N=C1CCCCCN1C2,5.91,5.88,5.72,5.8,5.67,5.54,4.82,100,> 200
C=CCOC(=O)c1ccccc1C(=O)OCC=C [Diallyl phthalate],5.88,5.92,5.94,5.96,5.88,5.84,5.65,200,> 200
Cc1oc(-c2ccccc2)nc1CCOc1cccc2c1ccn2CCC(=O)O,5.73,5.92,5.85,5.73,5.67,5.81,5.52,200,> 200
